What is called IC50 is the concentration that inhibits the measured activity by half.

The target in one experiment is P2X7 receptor (hP2X7) (Homo sapiens (Human), UniProt Q99572). As to the kind of experiment: Screen Quest Fluo-8 No Wash Calcium Assay (Bz-ATP-induced Ca2+ influx, FLIPR TETRA). The note with it: HEK-293 cells stably transfected with P2X7 receptor, Fluo-8 calcium, Low Divalent Cation Assay Buffer. The format is cell-based. As for the experimental part:
Extracellular binding of Bz-ATP to P2X7 receptor opens the channel and allows Ca2+ influx into the cells. This Ca2+ entry was measured in HEK-293 cells stably transfected with P2X7 receptor using Screen Quest™ Fluo-8 No Wash Calcium Assay Kit (AAt Bioquest®, cat. 36316). Once inside the cell, the lipophilic blocking groups of Fluo-8 are cleaved by non-specific cell esterases, resulting in a negatively-charged fluorescent dye that stays inside cells. Its fluorescence increases upon binding to calcium. When HEK-293/P2X7 cells are stimulated with Bz-ATP, Ca2+ enters the cells and the fluorescence of Fluo-8 NW increases. The dye has an absorption spectrum compatible with excitation at 488 nm by argon laser sources and its emission wavelength is in the range of 515-575 nm.
HEK-293 cells stably transfected with P2X7 receptor were seeded overnight in growth medium at 10,000 to 20,000 cells/well in 384-well plate. 24 hours later, the medium was removed and the cells were pre-loaded at RT for 1 hour with 20 μL/w of Fluo-8 NW. Then 10 μL/w of test compounds and reference antagonist A438079 at 3×-concentration were injected with the […] and the kinetic response over a period of five minutes was monitored.

The target in the next experiment is P2X7 receptor (Homo sapiens (Human), UniProt Q99572). In words: YO-PRO-1 Uptake Assay (large pore form, Bz-ATP stimulated). The format is cell-based. The note with it: HEK-293 cells stably transfected with P2X7 receptor; Bz-ATP EC80 (30 μM); 5 μM YO-PRO-1. An excerpt: YO-PRO®-1 is a fluorescent DNA-binding dye with a MW of 374 Da (Molecular Probes®, cat. Y3603). This method is based upon the presumed ability of YO-PRO®-1 to enter through the dilated or “large pore form” of P2X7 receptor and to bind to intracellular DNA whereupon it increases many fold its fluorescence intensity. The dye has an absorption spectrum compatible with excitation at 488 nm by argon laser sources and its emission wavelength is in the range of 515-575 nm. The aim of this assay was to validate the interaction of antagonists with P2X7 receptor using an alternative readout to Ca^2+-sensitive fluorescent dyes.
Chain of P2X7 receptor (Q99572 whole entry): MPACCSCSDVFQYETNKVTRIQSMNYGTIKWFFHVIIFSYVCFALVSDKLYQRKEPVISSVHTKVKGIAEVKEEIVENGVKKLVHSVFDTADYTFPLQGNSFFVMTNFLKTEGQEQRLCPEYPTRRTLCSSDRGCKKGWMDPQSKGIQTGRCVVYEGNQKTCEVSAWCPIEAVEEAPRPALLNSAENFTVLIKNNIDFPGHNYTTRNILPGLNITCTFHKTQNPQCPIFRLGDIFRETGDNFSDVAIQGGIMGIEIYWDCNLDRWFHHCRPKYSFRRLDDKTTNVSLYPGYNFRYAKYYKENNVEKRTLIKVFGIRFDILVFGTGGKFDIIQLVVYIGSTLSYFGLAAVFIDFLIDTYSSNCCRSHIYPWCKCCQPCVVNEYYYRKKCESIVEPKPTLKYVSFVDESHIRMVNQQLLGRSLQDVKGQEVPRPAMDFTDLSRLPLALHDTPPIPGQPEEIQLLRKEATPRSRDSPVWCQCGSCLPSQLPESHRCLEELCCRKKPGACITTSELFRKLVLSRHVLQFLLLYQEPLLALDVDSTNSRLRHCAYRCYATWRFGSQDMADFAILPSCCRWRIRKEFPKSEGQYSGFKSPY
HEK-293 cells stably transfected with P2X7 receptor were seeded overnight in growth medium at 20,000 cells/well in 384-well plate. 24 hours later, the medium was removed, the cells were washed with Low Divalent Cation Assay Buffer (0.3 mM Ca2+ and 0 mM Mg2+) and then pre-loaded with 20 μL/w of 5 μM YO-PRO®-1 dye. […] fluorescence measurement immediately started. Then, 10 μL/w of test compounds and reference antagonist A438079 at 3×-concentration were injected with the […] and the kinetic response over a period of five minutes was monitored. A second injection of 10 μL/w of 3× Bz-ATP EC80 (30 μM) was performed with the […] and the signal of the emitted fluorescence was recorded for additional 60 minutes. All the experiment was carried out with a Low Divalent Cation Assay Buffer (0.3 mM Ca^2+ and 0 mM Mg^2+).
The effect of the test compounds was measured as percent inhibition vs the reference antagonist and IC50 values were calculated accordingly.

Chain of P2X7 receptor (hP2X7) (Q99572 whole entry): as above

Turning to `Cc1ncc(C(CNC(=O)c2cc(-c3ncc(F)cn3)ccc2Cl)N2CCC(F)(F)CC2)s1` (single isomer, unassigned; (-)) [Compound 128, (−)-2-chloro-N-[2-(4,4-difluoro-piperidin-1-yl)-2-(2-methylthiazol-5-yl)ethyl]-5-(5-fluoropyrimidin-2-yl)benzamide], the IC50 at P2X7 receptor (hP2X7) was 141 nM; on P2X7 receptor, 24 nM.
In the same order, the values of `O=C(NCC(c1cnc(C2CCC2)s1)N1CCC(F)(F)CC1)c1cc(-c2ncc(F)cn2)ccc1F` (stereo not shown) [Compound 106, N-[2-(2-cyclobutyl-1,3-thiazol-5-yl)-2-(4,4-difluoropiperidin-1-yl)ethyl]-2-fluoro-5-(5-fluoropyrimidin-2-yl)benzamide] are 1240 nM and 807 nM.
As for `CCCc1ncc(C(CNC(=O)c2cc(-c3ncc(F)cn3)ccc2Cl)N2CCC(F)(F)CC2)s1` (stereo not shown) [Compound 107, 2-chloro-N-[2-(4,4-difluoropiperidin-1-yl)-2-(2-propyl-1,3-thiazol-5-yl)ethyl]-5-(5-fluoropyrimidin-2-yl)benzamide], the half-inhibitory concentration (IC50) on P2X7 receptor (hP2X7) came out at 631 nM; against P2X7 receptor it was 158 nM.
In the same order, the values of `O=C(NCC(c1cnc(C2CCC2)s1)N1CCC(F)(F)CC1)c1c(F)cccc1Cl` (stereo not shown) [Compound 110, 2-chloro-N-[2-(2-cyclobutyl-1,3-thiazol-5-yl)-2-(4,4-difluoropiperidin-1-yl)ethyl]-6-fluorobenzamide] are 119 nM and 46 nM.
In the same order, the values of `O=C(NCC(c1cscn1)N1CCc2ccccc2C1)c1c(F)cccc1Cl` (stereo not shown) [Compound 6, 2-chloro-N-[2-(3,4-dihydro-1H-isoquinolin-2-yl)-2-(1,3-thiazol-4-yl)-ethyl]-6-fluoro-benzamide] are 800 nM and 1260 nM.
Take `O=C(NCC(c1cncs1)N1CCC(F)(F)CC1)c1c(F)cccc1Cl` (stereo not shown) [Compound 8, 2-chloro-N-[2-(4,4-difluoro-piperidin-1-yl)-2-(1,3-thiazol-5-yl)ethyl]-6-fluoro-benzamide]: the figures for the IC50 on P2X7 receptor (hP2X7) and against P2X7 receptor were 28 nM and 389 nM, respectively.
In the same order, the values of `O=C(NCC(c1cnco1)N1CCOCC1)c1c(F)cccc1Cl` (stereo not shown) [Compound 44, 2-chloro-6-fluoro-N-[2-(morpholin-4-yl)-2-(1,3-oxazol-5-yl)ethyl]benzamide] are 677 nM and 500 nM.
In the same order, the values of `Cc1cccc(Cl)c1C(=O)NCC(c1cncs1)N1CCOCC1` (stereo not shown) [Compound 13, 2-chloro-6-methyl-N-[2-(morpholin-4-yl)-2-(1,3-thiazol-5-yl)ethyl]benzamide] are 64 nM and 271 nM.
In the same order, the values of `Cc1cccc(C)c1C(=O)NCC(c1cnco1)N1CCC(F)(F)CC1` (stereo not shown) [Compound 46, N-[2-(4,4-difluoropiperidin-1-yl)-2-(1,3-oxazol-5-yl)ethyl]-2,6-dimethylbenzamide] are 18 nM and 55 nM.
For `O=C(NCC(c1cncs1)N1CCOCC1)c1c(F)cccc1Cl` (stereo not shown) [Compound 10, 2-chloro-6-fluoro-N(2-(morpholin-4-yl)-2-(thiazol-5-yl)-ethyl)benzamide], the 50% inhibitory concentration (IC50) at P2X7 receptor (hP2X7) and against P2X7 receptor was 57 nM in each case.
Consider `Cc1cccc(C)c1C(=O)NCC(c1cncs1)N1CCC(OCc2ccccc2)CC1` (stereo not shown) [Compound 23, N-{2-[4-(benzyloxy)piperidin-1-yl]-2-(1,3-thiazol-5-yl)ethyl}-2,6-dimethylbenzamide], for which the IC50 at P2X7 receptor (hP2X7) stood at 118 nM; at P2X7 receptor, 40 nM.
In the same order, the values of `Nc1ccc(Cl)c(C(=O)NCC(c2cncs2)N2CCc3ccccc3C2)c1` (stereo not shown) [Compound 17, 5-amino-2-chloro-N-[2-(1,2,3,4-tetrahydroisoquinolin-2-yl)-2-(1,3-thiazol-5-yl)ethyl]benzamide] are 136 nM and 690 nM.
Consider `COc1cccc(C(=O)NCC(c2ocnc2C)N2CCC(F)(F)CC2)c1OC` (stereo not shown) [Compound 50, N-[2-(4,4-difluoropiperidin-1-yl)-2-(4-methyl-1,3-oxazol-5-yl)ethyl]-2,3-dimethoxybenzamide], for which the IC50 turned out to be 4970 nM on P2X7 receptor (hP2X7) and 2090 nM at P2X7 receptor.
For the compound `Cc1ncsc1C(CNC(=O)c1c(F)cccc1Cl)N1CCOC(c2ccc(F)cc2F)C1` (stereo not shown) [Compound 91, 2-chloro-N-{2-[2-(2,4-difluorophenyl)morpholin-4-yl]-2-(4-methyl-1,3-thiazol-5-yl)ethyl}-6-fluorobenzamide], the results for the concentration for half-maximal inhibition (IC50) on P2X7 receptor (hP2X7) and against P2X7 receptor were 72 nM and 53 nM, respectively.
In the same order, the values of `O=C(NCC(c1cnco1)N1CCc2ccccc2C1)c1c(F)cccc1Cl` (stereo not shown) [Compound 48, 2-chloro-6-fluoro-N-[2-(1,3-oxazol-5-yl)-2-(1,2,3,4-tetrahydroisoquinolin-2-yl)ethyl]benzamide] are 541 nM and 1070 nM.
For `O=C(NCC(c1scnc1C(F)F)N1CCC(F)(F)CC1)c1c(F)cccc1Cl` (stereo not shown) [Compound 95, 2-chloro-N-{2-[4-(difluoromethyl)-1,3-thiazol-5-yl]-2-(4,4-difluoropiperidin-1-yl)ethyl}-6-fluorobenzamide], the 50% inhibitory concentration (IC50) on P2X7 receptor (hP2X7) worked out at 54 nM; against P2X7 receptor, 82 nM.
With `Cc1cccc(C)c1C(=O)NCC(c1scnc1C)N1CCOCC1` (stereo not shown) [Compound 36, 2,6-dimethyl-N-[2-(4-methyl-1,3-thiazol-5-yl)-2-(morpholin-4-yl)ethyl]benzamide], the half-inhibitory concentration (IC50) worked out at 149 nM at P2X7 receptor (hP2X7) and 302 nM against P2X7 receptor.
For the compound `Cc1cccc(Cl)c1C(=O)NCC(c1cncs1)N1CCc2ccccc2C1` (stereo not shown) [Compound 19, 2-chloro-6-methyl-N-[2-(1,2,3,4-tetrahydroisoquinolin-2-yl)-2-(1,3-thiazol-5-yl)ethyl]benzamide], the half-maximal inhibitory concentration (IC50) at P2X7 receptor (hP2X7) was found to be 104 nM; on P2X7 receptor, 197 nM.
In the same order, the values of `O=C(NCC(c1cnc(C(F)(F)F)s1)N1CCC(F)(F)CC1)c1c(F)cccc1Cl` (stereo not shown) [Compound 81, 2-chloro-N-[2-(4,4-difluoropiperidin-1-yl)-2-[2-(trifluoromethyl)-1,3-thiazol-5-yl]ethyl]-6-fluorobenzamide] are 38 nM and 16 nM.
Take `O=C(NCC(c1nccs1)N1CCc2ccccc2C1)c1c(F)cccc1Cl` (stereo not shown) [Compound 1, 2-chloro-N-[2-(3,4-dihydro-1H-isoquinolin-2-yl)-2-(1,3-thiazol-2-yl)-ethyl]-6-fluoro-benzamide]: the half-maximal inhibitory concentration (IC50) on P2X7 receptor (hP2X7) was found to be 1020 nM; against P2X7 receptor it was 1360 nM.
In the same order, the values of `O=C(NCC(c1nccs1)N1CCC(F)(F)CC1)c1c(F)cccc1Cl` (stereo not shown) [Compound 2, 2-chloro-N-[2-(4,4-difluoro-piperidin-1-yl)-2-(1,3-thiazol-2-yl)-ethyl]-6-fluoro-benzamide] are 306 nM and 1300 nM.
Take `Cc1ncsc1C(CNC(=O)c1c(F)cccc1Cl)N1CCC(F)(F)CC1` (stereo not shown) [Compound 31, 2-chloro-N-[2-(4,4-difluoropiperidin-1-yl)-2-(4-methyl-1,3-thiazol-5-yl)ethyl]-6-fluorobenzamide]: the 50% inhibitory concentration (IC50) at P2X7 receptor (hP2X7) was 31 nM; at P2X7 receptor it was 229 nM.
As for `COc1cccc(C(=O)NCC(c2ocnc2C)N2CCc3ccccc3C2)c1OC` (stereo not shown) [Compound 56, 2,3-dimethoxy-N-[2-(4-methyl-1,3-oxazol-5-yl)-2-(1,2,3,4-tetrahydroisoquinolin-2-yl)ethyl]benzamide], the half-inhibitory concentration (IC50) on P2X7 receptor (hP2X7) is 147 nM; on P2X7 receptor it was 414 nM.

Source of the values: US9718812B2, “Substituted thiazole or oxazole P2X7 receptor antagonists” (Axxam S.P.A., priority 2014, dated 2017).
